Data set [1] relates to neuropathic pain model induced by L5/L6 spinal nerve ligation (tactile allodynia). The note with it: rat, in vivo, po.
Protocol: Antineuropathic effect of a combination of pregabalin and alpha lipoic acid through the neuropathic pain model induced by L5/L6 spinal nerve ligation in rat was determined.
Wistar female rats with a body weight of 120-140 g were used for all experiments. Animals were kept under temperature controlled conditions (22° C.) and water and food were given ad-libitum in experimentation rooms.
Both pregabalin and alpha lipoic acid were suspended in a 0.5% carboxymethylcellulose isotonic saline solution. Individual drugs or in combination were prepared and administered just before starting the experiment.
Rats were prepared according to the method described by Kim S H, Chung J M. 1992. […]
Tactile allodynia was determined according to the previously described method by Chaplan S R, Bach F W, Pogrel J W, Chung J M, Yaksh T L. 1994. […] Paw withdrawal mechanical threshold was measured immediately after and a systemic administration of drugs was carried out. Later, paw withdrawal mechanical threshold was measured at 0.5, 1, 2, 3, 4, 5, 6, 7 and 8 hours. […]
Graphs of 50% withdrawal threshold in grams (g) in function of time (minutes) were prepared from data obtained. Area under curve was determined from these graphs through trapezoidal method and % of maximum possible effect (% MEP) was calculated using the following formula: % MEP=(Drug AUC−Neuropathic AUC)/(Sham AUC−Neuropathic AUC)×100 […]
Data set [2] is described as follows: Safety/tolerability observations in treated rats. As to conditions: 30 mg/Kg dose.
Protocol: Wistar female rats with a body weight of 120-140 g were used for all experiments. Animals were kept under temperature controlled conditions (22° C.) and water and food were given ad-libitum in experimentation rooms. Experiments were carried out according to the guidelines on ethical issues on experimental pain research in animals (Zimmermann M. 1983. Ethical guidelines for investigations of experimental pain in conscious animals. Pain. 16:109-110).

Regarding `O=C(O)CCCCC1CCSS1` (stereo not drawn) [alpha lipoic acid], it took a dose of 57.5 ± 5.59 mg/kg to reach the 50% effect level in data set [1] (ED50).

On to `CC(C)C[C@H](CN)CC(=O)O` [pregabalin], for which the adverse signs observed result in data set [2] was “sedation and motor discoordination”. The compound further registered an ED50 in data set [1] of 2.45 ± 0.23 mg/kg.

The record behind these values is patent publication US12029727B2, “Combinations and methods for the treatment of neuropathic pain” (priority 2016, dated 2024).
